The values that follow are results of earlier work, collected in article PMC5175396, “Cytotoxicity of Plumbagin, Rapanone and 12 other naturally occurring Quinones from Kenyan Flora towards human carcinoma cells” (BMC Pharmacology & Toxicology, 2016).

This series concerns PF-382 leukemia T-cells, MiaPaCa-2 pancreatic cells, U87MG glioblastoma-astrocytoma cells, Colo-38 skin melanoma cells, HeLa and Caski cervical carcinoma cells. Also noted: method as in PMID 21886765. As to conditions: PF-382, MiaPaCa-2, U87MG, Colo-38, HeLa, read-out: IC50 against a panel of cancer cell lines; cited from earlier work.

Regarding `CC(=O)c1cc2c(o1)C(=O)c1ccccc1C2=O` [2-acetylfuro-1,4-naphthoquinone], the IC50 was less than 10 µM.

Broadly, the IC50 is the midpoint of a concentration-inhibition curve.
